pIC50, pKd: −log10 of the molar value.
Experiments:
[1] = molecular target: SOS1:KRAS (G12C) interaction (Homo sapiens (Human), UniProt Q07889); assay: SOS1 KRas(G12C) FRET Assay; assay type: binding; conditions: 0.5 nM His10-SOS1 (res. 564-1049), 2.5 nM GST-KRAS G12C (res. 1-169), 2 hrs at RT
Outline: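 GST-KRAS G12C (res. 1-169) at 2.5 nM and His10-SOS1 (res. 564-1049) at 0.5 nM, final, in PBS with 0.1% BSA, 5 mM MgCl2, 100 mM KF, 5 mM DTT and 0.5% DMSO. After 2 h at RT, FRET read at 665/615 nm and normalized to DMSO and no-SOS1 controls. IC50 by non-linear regression.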

human SOS1 = human SOS1 (Homo sapiens (Human), UniProt Q07889); assay: Surface Plasmon Resonance (SPR) SOS1 Binding Assay; conditions: biotinylated SOS1 (res. 564-1049), Biacore 8K, 25° C., kinetic or steady state fit, 1:1 binding; read-out: hSOS1 KD
Sequence of human SOS1 (Q07889 564-1049): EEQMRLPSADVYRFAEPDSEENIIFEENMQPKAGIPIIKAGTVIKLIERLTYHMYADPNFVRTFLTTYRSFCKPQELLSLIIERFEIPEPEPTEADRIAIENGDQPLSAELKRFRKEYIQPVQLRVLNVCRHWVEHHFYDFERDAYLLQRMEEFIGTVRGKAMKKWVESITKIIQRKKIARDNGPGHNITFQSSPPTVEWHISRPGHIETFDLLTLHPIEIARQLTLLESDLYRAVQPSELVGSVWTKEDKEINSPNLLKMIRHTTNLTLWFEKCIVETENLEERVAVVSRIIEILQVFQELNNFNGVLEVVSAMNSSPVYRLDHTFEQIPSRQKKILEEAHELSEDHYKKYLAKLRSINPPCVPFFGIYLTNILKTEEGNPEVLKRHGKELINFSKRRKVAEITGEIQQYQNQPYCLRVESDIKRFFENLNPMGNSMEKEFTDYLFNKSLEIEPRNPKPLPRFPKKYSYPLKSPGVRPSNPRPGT
Outline: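 Biotinylated Avi-tagged human SOS1 (res. 564-1049) captured on streptavidin chip (~3,000 RU); compounds injected 60 s, dissociation 600 s, at 25° C in Tris pH 8.0 buffer with 5% DMSO. Reference- and blank-subtracted; KD from kinetic or steady-state 1:1 binding fit.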

Sequence of SOS1:KRAS (G12C) interaction (Q07889 564-1049, stated change not applied): as the sequence (Q07889 564-1049) above

| SMILES | pIC50 [1] | pKd (human SOS1) |
| --- | --- | --- |
| C[C@@H](NC(=O)c1cn(C2CC2)c(=O)cc1N[C@H]1[C@@H]2CN(C)C[C@@H]21)c1cccc(C(F)F)c1F [Example 101, 1-cyclopropyl-N-((R)-1-(3-(difluoromethyl)-2-fluorophenyl)ethyl)-4-(((1R,5S,6s)-3-methyl-3-azabicyclo[3.1.0]hexan-6-yl)amino)-6-oxo-1,6-dihydropyridine-3-carboxamide] | 7.62 | 7.96 |
| C[C@@H](NC(=O)c1cn(C23CC(C2)C3)c(=O)cc1N[C@@H]1[C@@H]2CC[C@H]1CN(C)C2)c1cccc(C(F)F)c1F (single isomer, unassigned) [Example 134] | 8.05 | 8.30 |
| C[C@@H](NC(=O)c1cn(C2(C(F)F)CC2)c(=O)cc1NC1CCN(C)CC1)c1cccc(C(F)F)c1F [Example 49, (R)-N-(1-(3-(difluoromethyl)-2-fluorophenyl)ethyl)-1-(1-(difluoromethyl)cyclopropyl)-4-((1-methylpiperidin-4-yl)amino)-6-oxo-1,6-dihydropyridine-3-carboxamide] | 7.87 | 8.52 |
| C[C@@H](NC(=O)c1cn([C@@H]2CC23CC3)c(=O)cc1N[C@H]1[C@@H]2CN(C)C[C@@H]21)c1cccc(C(F)F)c1F (single isomer, unassigned) [Example 116] | 7.57 | 7.96 |
| Cc1c([C@@H](C)NC(=O)c2cn(C3CCOCC3)c(=O)cc2N[C@H]2CCN(C)C2)cccc1C(F)(F)F [Example 4, N-((R)-1-(2-methyl-3-(trifluoromethyl)phenyl)ethyl)-4-(((S)-1-methylpyrrolidin-3-yl)amino)-6-oxo-1-(tetrahydro-2H-pyran-4-yl)-1,6-dihydropyridine-3-carboxamide] | 7.34 | 7.80 |
| C[C@@H](NC(=O)c1cn([C@H]2CCOC[C@@H]2F)c(=O)cc1N[C@H]1[C@@H]2CN(C)C[C@@H]21)c1cccc(C(F)F)c1F [Example 129, N-((R)-1-(3-(difluoromethyl)-2-fluorophenyl)ethyl)-1-((3R,4S)-3-fluorotetrahydro-2H-pyran-4-yl)-4-(((1R,5S,6s)-3-methyl-3-azabicyclo[3.1.0]hexan-6-yl)amino)-6-oxo-1,6-dihydropyridine-3-carboxamide] | 7.60 | 8.10 |
| C[C@@H](NC(=O)c1cn(C23CCC(CC2)C3)c(=O)cc1N[C@H]1[C@@H]2CN(C)C[C@@H]21)c1cccc(C(F)F)c1F [Example 132, 1-(bicyclo[2.2.1]heptan-1-yl)-N-((R)-1-(3-(difluoromethyl)-2-fluorophenyl)ethyl)-4-(((1R,5S,6s)-3-methyl-3-azabicyclo[3.1.0]hexan-6-yl)amino)-6-oxo-1,6-dihydropyridine-3-carboxamide] | 7.99 | 8.10 |
| C[C@@H](NC(=O)c1cn([C@H]2C[C@@H]2C2CC2)c(=O)cc1N[C@H]1[C@@H]2CN(C)C[C@@H]21)c1cccc(C(F)F)c1F (single isomer, unassigned) [Example 72] | 8.01 | 8.52 |
| C[C@@H](NC(=O)c1cn(C2CC2)c(=O)cc1N[C@H]1[C@@H]2CC[C@H]1CN(C)C2)c1cccc(C(F)F)c1F (single isomer, unassigned) [Example 141] | 7.20 | 7.48 |
| C[C@@H](NC(=O)c1cn(C23CC(C(F)F)(C2)C3)c(=O)cc1N[C@H]1[C@@H]2CN(C)C[C@@H]21)c1cccc(C(F)F)c1F [Example 105, N-((R)-1-(3-(difluoromethyl)-2-fluorophenyl)ethyl)-1-(3-(difluoromethyl)bicyclo [1. 1.1]pentan-1-yl)-4-(((1R,5S,6s)-3-methyl-3-azabicyclo[3.1.0]hexan-6-yl)amino)-6-oxo-1,6-dihydropyridine-3-carboxamide] | 7.89 | 8.05 |
| C[C@@H](NC(=O)c1cn([C@@H]2C[C@H]2C2CC2)c(=O)cc1NC1CCN(C)CC1)c1cccc(C(F)F)c1F (single isomer, unassigned) [Example 74] | 8.34 | 8.70 |
| C[C@@H](NC(=O)c1cn(C2(C(F)F)CC2)c(=O)cc1N[C@@H]1C[C@@H]2CN(C)C[C@@H]2C1)c1cccc(C(F)F)c1F (single isomer, unassigned) [Example 124] | 7.50 | 7.89 |
| C[C@@H](NC(=O)c1cn([C@@H]2C[C@H]2C(F)F)c(=O)cc1N[C@H]1[C@@H]2CN(C)C[C@@H]21)c1cccc(C(F)F)c1F [Example 114, N-((R)-1-(3-(difluoromethyl)-2-fluorophenyl)ethyl)-1-((1R,2R)-2-(difluoromethyl)cyclopropyl)-4-(((1R,5S,6s)-3-methyl-3-azabicyclo[3.1.0]hexan-6-yl)amino)-6-oxo-1,6-dihydropyridine-3-carboxamide] | 7.68 | 7.89 |
| C[C@@H](NC(=O)c1cn(C2CC(F)(F)C2)c(=O)cc1N[C@H]1[C@@H]2CN(C)C[C@@H]21)c1cccc(C(F)F)c1F [Example 100, 1-(3,3-difluorocyclobutyl)-N-((R)-1-(3-(difluoromethyl)-2-fluorophenyl)ethyl)-4-(((1R,5S,6s)-3-methyl-3-azabicyclo[3.1.0]hexan-6-yl)amino)-6-oxo-1,6-dihydropyridine-3-carboxamide] | 7.74 | 8.00 |
| CO[C@H]1CN(C)CC[C@H]1Nc1cc(=O)n(C2(C(F)F)CC2)cc1C(=O)N[C@H](C)c1cccc(C(F)F)c1F [Example 153, N-((R)-1-(3-(difluoromethyl)-2-fluorophenyl)ethyl)-1-(1-(difluoromethyl)cyclopropyl)-4-(((3S,4R)-3-methoxy-1-methylpiperidin-4-yl)amino)-6-oxo-1,6-dihydropyridine-3-carboxamide] | 7.23 | 7.60 |
| Cc1c([C@@H](C)NC(=O)c2cn(C3CCOCC3)c(=O)cc2NC2CCN(CCF)CC2)cccc1C(F)(F)F [Example 16, (R)-4-((1-(2-fluoroethyl)piperidin-4-yl)amino)-N-(1-(2-methyl-3-(trifluoromethyl)phenyl)ethyl)-6-oxo-1-(tetrahydro-2H-pyran-4-yl)-1,6-dihydropyridine-3-carboxamide] | 7.53 | 7.64 |
| C[C@@H](NC(=O)c1cn(C23CC(C2)C3)c(=O)cc1N[C@H]1C[C@@H](N(C)C)C1)c1cccc(C(F)F)c1F [Example 133, 1-(bicyclo[1.1.1]pentan-1-yl)-N-((R)-1-(3-(difluoromethyl)-2-fluorophenyl)ethyl)-4-(((1s,3S)-3-(dimethylamino)cyclobuty 1)amino)-6-oxo-1,6-dihydropyridine-3-carboxamide] | 7.63 | 7.96 |
| C[C@@H](NC(=O)c1cn([C@H]2CCC2(F)F)c(=O)cc1N[C@H]1[C@@H]2CN(C)C[C@@H]21)c1cccc(C(C)(F)F)c1F (single isomer, unassigned) [Example 148] | 8.13 | 8.22 |
